Test results reported in US9623030B2, “Tumescent antibiotic solution” (priority 2004, dated 2017).
Values after ≈ are worked out from the molar mass of the structure shown. Values belong to the molecule of their own block, whether it stands above or below them.

What was measured:
[1] = system: Staphyloccus aureus (MRSA) ATCC 33592; test: Minimum Inhibitory Concentration (MIC) by dilution; settings: Staphylococcus aureus, read-out: MIC
platelet aggregation = settings: cited from earlier work
S. aureus = settings: effect increases with greater duration of exposure; cited from earlier work
[2] = cited from earlier work
[3] = female, human, in vivo
Description: A clinical pharmacologic investigation was conducted to compare the pharmacokinetic advantages of two modes of systemic antibiotic delivery, Tumescent antibiotic delivery (TAD), which involves the delivery of a relatively large volume of an antibiotic-containing solution to the subcutaneous compartment, and intravenous antibiotic delivery (IVAD), which results in direct delivery of antibiotics to the blood stream, for prophylaxis of SSI.
With Institutional Review Board (IRB) approval, the absorption pharmacokinetics of tumescent antibiotic delivery (TAD) and intravenous antibiotic delivery (IVAD) were tested in human subjects and the antibiotic delivery modes were evaluated with respect to the area under the curve (AUC) of antibiotic concentration as a function of time and peak antibiotic concentration (Cmax) in serum and TISF. 4 female subjects participated in at least one study, one subject volunteered for 2 separate studies. 5 studies were conducted: 3 involved TAD to the abdomen, 1 involved TAD to the hips and outer thighs and 1 involved TAD to the breasts. […] Each of the 5 studies consisted of 2 to 3 pharmacokinetic procedures, for a total of 14 procedures. Any procedures conducted on an individual subject were separated by at least one week. In 13 procedures only IVAD or TAD, was used. […]

[4] = 1 gm given at the end of the surgery; 405 abdominal surgery patients; cited from earlier work

SMILES: Cc1nnc(SCC2=C(C(=O)O)N3C(=O)[C@@H](NC(=O)Cn4cnnn4)[C@H]3SC2)s1 [Cefazolin]
- MIC [1]: 125 to 250 µg/mL (≈ 275 to 550 µM)

SMILES: CCN(CC)CC(=O)Nc1c(C)cccc1C [Lidocaine]
- lidocaine concentration consistently inhibiting in-vitro platelet aggregation (platelet aggregation; aggregation induced by ADP, epinephrine and collagen): ≥ 0.5 mg/mL
- effect on platelet aggregation (platelet aggregation; safe systemic concentrations (≦6 micrograms/ml)): no effect
- bactericidal effect in vitro (S. aureus): bactericidal
- maximum safe mg/kg dosage of tumescent lidocaine (estimated) ([2]; adults, TLA without liposuction): 30 mg/kg
- dosage limitation approved by the FDA for infiltration local anesthesia ([2]; commercial lidocaine (1%) with epinephrine (1:100,000)): 7 mg/kg
- duration of local anesthesia ([2]; routine local anesthesia): 2 h

- interval in which serum concentration of metronidazole exceeded 4 μg/ml [3]: 0 to 12 h
SMILES: Cc1ncc([N+](=O)[O-])n1CCO [Metronidazole]

SMILES: O=C(Cc1cccs1)N[C@@H]1C(=O)N2C(C(=O)[O-])=C(C[n+]3ccccc3)CS[C@H]12 [cephaloridine]
- incidence of wound infection, intravenous vs intra incisional [4]: no significant difference
